# Test results reported in US7994326B2 (Northwestern University, priority 2003, dated 2011).
# How the values were obtained:
# Type in all cases: biochemical
# rat nNOS = target: T1, rat nNOS (Rattus norvegicus, UniProt P29476); assay: NOS enzyme inhibitory assay (hemoglobin capture), nNOS; settings: Table 1b; for Selectivity n/e: ratio of Ki values eNOS/nNOS; for Selectivity n/i: ratio of Ki values iNOS/nNOS; for Ki: read-out: Ki nNOS
# T1 construct: made in house; host or cells: E. coli (plasmid pCWnNOS)
# Procedure: (§1) All of the NOS isoforms used were recombinant enzymes overexpressed in E. coli from different sources. Nitric oxide formation from NOS was monitored by the hemoglobin capture assay as described in the literature.
# After approximately 48 h of post-induction incubation in the dark at 25° C. the cells were pelleted at 5300×g, transferred to 50 mL conical tubes, and stored at −80° C.
# nNOS purification: Cell pellets from 2.0 L of culture were resuspended in sonication Buffer A (50 mM Tris Base Buffer, pH 8.0, 10% glycerol), 2 mg/ml lysozyme. 0.5 mM L-arginine. 1 mM EDTA, 0.1 mM PMSF, 1 µg/ml antipain, and 1 μM each of leupeptin, […], and […]) and lysed by sonication. Centrifugation for 1 h at 100000×g yielded supernatant which contained nNOS active enzyme. The supernatant was brought to 2 mM CaCl2 and the protein was loaded onto a 15 ml calmodulin-Sepharose column equilibrated with Buffer A containing 2 mM CaCl2. The column was washed with 100 ml Buffer B (50 mM Hepes, 5 mM DTT, and […]) containing 2 mM CaCl2, 0.5 mM L-arginine, and 10 μM BH4, and eluted with 30 ml Buffer B supplemented with 0.3 M NaCl, 5 mM EGTA, 0.5 mM L-arginine, and 10 μM BH4. The protein was then loaded onto a 5 ml 2′,5′-ADP-Sepharose column equilibrated with Buffer B supplemented with 0.3 M NaCl, 0.5 mM L-arginine, and 10 μM BH4. The column was washed with 25 ml Buffer B containing 0.5 mM L-arginine and 10 μM BH4, and then 25 ml of Buffer B only supplemented with 10 μM BH4 (without L-arginine). Neuronal NOS was eluted with 20 ml Buffer B supplemented with 10 mM 2′(3′)-AMP, 10 μM BH4 and 0.3 M NaCl. The 20 ml eluent was then concentrated to 5 ml by ultrafiltration. The above concentration operation was repeated twice more with 10 ml Buffer B supplemented with 10 µM BH4 to give the purified neuronal NOS.
# Nitric oxide formation from NOS was monitored by the hemoglobin capture assay as described previously.
# (§2) The selectivity of an inhibitor is defined as the ratio of the respective Ki values.
# murine iNOS = target: T2, murine iNOS (Mus musculus, UniProt P29477); assay: NOS enzyme inhibitory assay (hemoglobin capture), iNOS; settings: Table 1b; read-out: Ki iNOS
# T2 construct: made in house; host or cells: E. coli (plasmid pCWiNOS)
# Text: as §1
# Enzyme inhibitory assay. All of the NOS isoforms used are recombinant enzymes overexpressed in E. coli from different sources.
# iNOS expression: An overnight culture of pCWiNOS was used to inoculate (1:100) larger cultures of Terrific Broth media (12 g/L tryptone, 24 g/L yeast extract, 4 mL/L glycerol, 17 mM KH2PO4, and 72 mM K2HPO4) containing 50 μg/mL ampicillin and 34 μg/mL chloramphenicol at 37° C. At an OD600 of ˜0.5, the culture was cooled to 25° C. and induced by the addition of 1 mM IPTG (final concentration). After approximately 24 h of growth at 25° C., the cells were pelleted at 5300×g, transferred to 50 mL conical tubes, and stored at −80° C.
# iNOS purification: Cell pellets from 1.0 L of culture were resuspended in sonication buffer (50 mM Hepes, pH 7.4, 10% glycerol, 10 μg/mL benzamidine, 5 μg/mL leupeptin, 0.2 mM of PMSF, and 1 μg/mL each of pepstatin, chymostatin, and antipain) and lysed by sonication. Centrifugation for 20 min at 13000×g yielded supernatant which contained iNOS active enzyme. iNOS supernatant was loaded onto 1 g of a 2′,5′-ADP-Sepharose 4B resin column. The column was then washed with 20 ml iNOS purification buffer (10 mM K2HPO4, 10% glycerol, 0.5 mM L-arginine, pH 7.4) and 10 μM BH4. Inducible NOS was eluted with 30 ml iNOS purification buffer supplemented with 10 mM 2′(3′)-AMP, 10 μM BH4, and 0.3 M NaCl. The eluent was concentrated to 5 ml by ultrafiltration. The above concentration operation was repeated three times more with 10 ml Hepes buffer supplemented with 10 μM BH4, to give purified inducible NOS.
# (§3) Nitric oxide formation from NOS was monitored by the hemoglobin capture assay as described previously. (Hevel, J. M.; Marletta, M. A. Nitric Oxide Synthase Assays. Methods Enzymol. 1994, […], 250-258).
# as §2
# bovine eNOS = target: T3, bovine eNOS (Bos taurus, UniProt P29473); assay: NOS enzyme inhibitory assay (hemoglobin capture), eNOS; settings: Table 1b; read-out: Ki eNOS
# T3 construct: made in house; host or cells: E. coli (plasmid Bov-eNOSpCW)
# Procedure: as §1
# Expression of bovine eNOS: An overnight culture of Bov-eNOSpCW was used to inoculate 0.5 liter (in a 2.8-liter Fernbach flask) of modified TB (20 g of yeast extract, 10 g of bacto-tryptone, 2.65 g of KH2PO4, 4.33 g of Na2HPO4 and 4 ml of glycerol per liter) containing ampicillin ([…]) and chloramphenicol ([…]). The cultures were grown to an OD600 of z0.8 at 22° C. (200 rpm) and induced with 0.5 mM IPTG. One hour before IPTG induction, d-aminolevulinic acid (0.5 mM final) was added and, at the time of IPTG induction, riboflavin ([…]) and ATP (1 mM final) were also added. After induction, the flasks were kept in the dark at 22° C. (200 rpm). The cells were harvested 48 h after induction, and the cell pellet was frozen at −80° C. until purification was carried out.
# Purification of bovine eNOS. The purification was typically carried out with eNOS from 2 liters of E. coli culture. The eNOS protein was purified using a modification of the published protocol for nNOS (14). The cells were resuspended in buffer C [50 mM Tris-Cl, pH 7.8, 1 mM EDTA, 1 mM DTT, 10% glycerol (v/v), 150 mM NaCl, 0.1 mM phenylmethylsulfonyl fluoride, […]], lysed by pulsed sonication and then centrifuged to sediment the cell debris. The supernatant was applied to a 2′,5′-ADP Sepharose 4B column equilibrated in buffer D [50 mM Tris-Cl, pH 7.8, 0.1 mM EDTA, 0.1 mM dithiothreitol, 150 mM NaCl, 10% glycerol (v/v)]. The column was washed with 20 column volumes of buffer B and again with 20 column volumes of buffer B containing 600 mM NaCl. Finally, protein was eluted with buffer B containing 600 mM NaCl and 5 mM 2′-AMP. The fractions were screened for absorption in the Soret region (A400) and hemoprotein-containing fractions were pooled and concentrated (Centriprep 50, Amicon). Repeated dilution/concentration [50 mM Tris-Cl, pH 7.8, 0.1 mM EDTA, 0.1 mM dithiothreitol, 10% glycerol (vol/vol)] was used to reach a final concentration of 150 mM NaCl and commensurately reduce the 2′-AMP content. […] The purified eNOS is stored in the presence of 1 mM L-arginine.
# eNOS washing: eNOS contains a significant amount of L-arginine, which will interfere with the enzyme assay. The L-arginine can be removed by several dilution and concentration steps using an Amico concentrator. The dilution buffer is 10 ml Tris-HCl 50 mM containing 0.1 mM EDTA, 400 mM NaCl, 10% glycerol and 1 mM beta-mercaptoethanol. The above dilution and concentration operation was repeated three times to give purified eNOS.
# as §3, §2
Structure (SMILES),Selectivity n/e (rat nNOS),Selectivity n/i (rat nNOS),Ki (rat nNOS) [µM],Ki (murine iNOS) [µM],Ki (bovine eNOS) [µM]
Cc1cc(N)nc(CC2CNCC2NCCNCc2cccc(C(F)(F)F)c2)c1.Cl.Cl.Cl.Cl (racemic) [Compound P-52],563.6,65.8,0.206,13.6,116
Cc1cccc(CNCCN[C@@H]2CNC[C@@H]2Cc2cc(C)cc(N)n2)c1.Cl.Cl.Cl.Cl (racemic) [Compound P-53],450.5,56.7,0.159,9.01,71.6
Cc1cc(N)nc(C[C@H]2CNC[C@@H]2NCCNCc2ccc(F)cc2)c1.Cl.Cl.Cl.Cl (racemic) [Compound P-57],90.1,31.3,0.87,27.4,78.8
Cc1cc(N)nc(CC2CNCC2NCCNCc2cccc(C(F)(F)F)c2)c1.Cl.Cl.Cl.Cl (racemic) [Compound P-58],146.1,79,0.74,58.7,109
Cc1cccc(CNCCN[C@H]2CNC[C@@H]2Cc2cc(C)cc(N)n2)c1.Cl.Cl.Cl.Cl (racemic) [Compound P-59],305.5,127.1,0.66,83.9,202
Cc1cc(N)nc(CC2CNCC2NCCNCc2ccc(Cl)c(Cl)c2)c1.Cl.Cl.Cl.Cl (racemic) [Compound P-60],260,22.6,0.157,3.56,40.8
Cc1cc(N)nc(C[C@H]2CNC[C@H]2NCCNCc2ccc(Cl)cc2Cl)c1.Cl.Cl.Cl.Cl (racemic) [Compound P-61],272,70,0.11,7.7,29.9
Cc1cc(N)nc(C[C@H]2CNC[C@H]2NC[C@H](C)NCc2ccc(Cl)cc2)c1.Cl.Cl.Cl.Cl (racemic) [Compound P-63],294.4,90,0.136,12.2,40
